US20250353891A1 (MEDIMMUNE LIMITED, priority 2022, published 2025)
Starred links: 1 amine or outer side, 2 acyl side, 3 side chain; linkers in the order of their positions; H or OH if unused. Non-standard residues stand in square brackets, D forms with d. Residues, ends and D or L forms follow the SMILES beside them. Groups on a side chain read outwards from the residue. *: point of attachment. C18 diacid = O=C(O)CCCCCCCCCCCCCCCCC(=O)*; γGlu = O=C(O)[C@H](CCC(=O)[*:2])N[*:1]; αMeF = C[C@](N)(Cc1ccccc1)C(=O)O; AEEA = NCCOCCOCC(=O)O; Aib = CC(C)(N)C(=O)O

Assays:
[1] = molecular target: human glucagon receptor (hGCGR) (Homo sapiens, UniProt P47871); assay: cAMP production (HTRF) in CHO cells expressing hGCGR; assay type: cell-based; design: expressed in transfected cells; settings: Table 6, peptides modified at position 17; cAMP in CHO hGCGR cells; geometric mean; read-out: hGluc-R EC50
In short: (§1)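 Read-out: HTRF cAMP (anti-cAMP cryptate donor, cAMP-d2 acceptor in conjugate/lysis buffer), converted to % Delta F and fitted by 4-parameter logistic for EC50. Cell densities were 1×10^5 cells/mL (hGLP-1R) or 2×10^5 cells/mL (hGCGR). Stimulation lasted 30 min at room temperature.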

[2] = molecular target: human GLP-1 receptor (hGLP-1R) (Homo sapiens, UniProt P43220); assay: cAMP production (HTRF) in CHO cells expressing hGLP-1R; assay type: cell-based; design: expressed in transfected cells; settings: for EC50: Table 6, peptides modified at position 17, cAMP in CHO hGLP-1R cells, geometric mean, read-out: hGLP-1R EC50; for % Relative Potency Ratio: Table 6, % GLP-1R activity relative to GLP-1 / % GlucR activity relative to glucagon
In short: as §1

Chain of human GLP-1 receptor (hGLP-1R) (P43220 24-463): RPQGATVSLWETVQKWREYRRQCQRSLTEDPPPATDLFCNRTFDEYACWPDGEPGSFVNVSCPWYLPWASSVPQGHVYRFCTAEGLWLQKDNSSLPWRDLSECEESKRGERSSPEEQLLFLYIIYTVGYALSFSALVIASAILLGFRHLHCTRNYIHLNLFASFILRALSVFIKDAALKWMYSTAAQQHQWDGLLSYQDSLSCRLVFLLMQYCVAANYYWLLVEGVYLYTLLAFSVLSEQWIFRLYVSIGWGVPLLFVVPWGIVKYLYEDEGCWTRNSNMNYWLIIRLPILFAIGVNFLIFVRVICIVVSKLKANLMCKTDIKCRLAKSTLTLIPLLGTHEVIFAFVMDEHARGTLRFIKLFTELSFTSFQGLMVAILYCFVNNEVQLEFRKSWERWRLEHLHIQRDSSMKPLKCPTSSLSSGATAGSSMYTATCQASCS
Chain of human glucagon receptor (hGCGR) (P47871 26-477): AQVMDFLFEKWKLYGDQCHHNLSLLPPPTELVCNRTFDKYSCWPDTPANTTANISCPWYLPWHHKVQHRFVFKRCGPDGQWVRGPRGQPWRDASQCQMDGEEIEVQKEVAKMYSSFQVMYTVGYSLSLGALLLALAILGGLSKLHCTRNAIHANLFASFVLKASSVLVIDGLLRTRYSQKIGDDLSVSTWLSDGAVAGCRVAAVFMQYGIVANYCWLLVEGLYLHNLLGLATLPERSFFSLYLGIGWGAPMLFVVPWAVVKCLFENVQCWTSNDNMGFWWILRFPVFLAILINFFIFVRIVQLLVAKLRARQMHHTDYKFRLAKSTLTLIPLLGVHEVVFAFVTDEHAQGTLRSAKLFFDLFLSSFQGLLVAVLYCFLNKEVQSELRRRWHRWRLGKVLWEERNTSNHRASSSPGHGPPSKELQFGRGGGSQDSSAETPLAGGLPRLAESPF

CC(C)C[C@H](NC(=O)[C@H](Cc1c[nH]c2ccccc12)NC(=O)[C@H](CCC(N)=O)NC(=O)[C@@H](NC(=O)[C@H](Cc1ccccc1)NC(=O)[C@H](CC(=O)O)NC(=O)[C@H](CCCNC(=N)N)NC(=O)[C@H](C)NC(=O)[C@H](CCCNC(=N)N)NC(=O)[C@H](CCCCNC(=O)COCCOCCNC(=O)COCCOCCNC(=O)CC[C@H](NC(=O)CCCCCCCCCCCCCCCCC(=O)O)C(=O)O)NC(=O)[C@H](CO)NC(=O)[C@H](CC(=O)O)NC(=O)[C@H](CC(C)C)NC(=O)[C@](C)(Cc1ccccc1)NC(=O)[C@H](CCCCN)NC(=O)[C@H](CO)NC(=O)[C@@H](NC(=O)[C@H](CC(=O)O)NC(=O)[C@H](CO)NC(=O)[C@@H](NC(=O)[C@H](Cc1ccccc1)NC(=O)[C@@H](NC(=O)CNC(=O)[C@H](CCC(N)=O)NC(=O)C(C)(C)NC(=O)[C@@H](N)Cc1c[nH]cn1)[C@@H](C)O)[C@@H](C)O)C(C)C)C(C)C)C(=O)N[C@@H](CC(C)C)C(=O)N[C@@H](CCC(=O)O)C(=O)NC(C)(C)C(=O)NCC(=O)O [Peptide 143] (H-H[Aib]QGTFTSDVSK[αMeF]LDSK([AEEA-AEEA-γGlu-C18 diacid])RARDFVQWLLE[Aib]G-OH; N-terminus assumed)
EC50 [1]: 0.0326 nM | EC50 [2]: 0.0191 nM | % Relative Potency Ratio [2]: 3.4

CC[C@H](C)[C@H](NC(=O)CNC(=O)[C@H](CCCNC(=N)N)NC(=O)[C@H](CO)NC(=O)[C@H](C)NC(=O)[C@H](CC(C)C)NC(=O)[C@H](Cc1c[nH]c2ccccc12)NC(=O)[C@H](CCCNC(=N)N)NC(=O)[C@@H](NC(=O)[C@H](Cc1ccccc1)NC(=O)[C@H](CC(=O)O)NC(=O)[C@H](CCC(N)=O)NC(=O)[C@H](C)NC(=O)[C@H](CCCNC(=N)N)NC(=O)[C@H](CCCCNC(=O)COCCOCCNC(=O)COCCOCCNC(=O)CC[C@H](NC(=O)CCCCCCCCCCCCCCCCC(=O)O)C(=O)O)NC(=O)[C@H](CO)NC(=O)[C@H](CC(=O)O)NC(=O)[C@H](CC(C)C)NC(=O)[C@](C)(Cc1ccccc1)NC(=O)[C@H](CCCCN)NC(=O)[C@H](CO)NC(=O)[C@@H](NC(=O)[C@H](CC(=O)O)NC(=O)[C@H](CO)NC(=O)[C@@H](NC(=O)[C@H](Cc1ccccc1)NC(=O)[C@@H](NC(=O)CNC(=O)[C@H](CCC(N)=O)NC(=O)C(C)(C)NC(=O)[C@@H](N)Cc1c[nH]cn1)[C@@H](C)O)[C@@H](C)O)C(C)C)C(C)C)C(=O)O [Peptide 145] (H-H[Aib]QGTFTSDVSK[αMeF]LDSK([AEEA-AEEA-γGlu-C18 diacid])RAQDFVRWLASRGI-OH)
EC50 [1]: 4.59 nM | EC50 [2]: 0.0226 nM | % Relative Potency Ratio [2]: 401.2

CC(C)C[C@H](NC(=O)[C@H](Cc1c[nH]c2ccccc12)NC(=O)[C@H](CCCNC(=N)N)NC(=O)[C@@H](NC(=O)[C@H](Cc1ccccc1)NC(=O)[C@H](CC(=O)O)NC(=O)[C@H](CCC(N)=O)NC(=O)[C@H](C)NC(=O)[C@H](CCCNC(=N)N)NC(=O)[C@H](CCCCNC(=O)COCCOCCNC(=O)COCCOCCNC(=O)CC[C@H](NC(=O)CCCCCCCCCCCCCCCCC(=O)O)C(=O)O)NC(=O)[C@H](CO)NC(=O)[C@H](CC(=O)O)NC(=O)[C@H](CC(C)C)NC(=O)[C@](C)(Cc1ccccc1)NC(=O)[C@H](CCCCN)NC(=O)[C@H](CO)NC(=O)[C@@H](NC(=O)[C@H](CC(=O)O)NC(=O)[C@H](CO)NC(=O)[C@@H](NC(=O)[C@H](Cc1ccccc1)NC(=O)[C@@H](NC(=O)CNC(=O)[C@H](CCC(N)=O)NC(=O)C(C)(C)NC(=O)[C@@H](N)Cc1c[nH]cn1)[C@@H](C)O)[C@@H](C)O)C(C)C)C(C)C)C(=O)N[C@@H](C)C(=O)N[C@@H](CO)C(=O)N[C@@H](CCCNC(=N)N)C(=O)O [Peptide 146] (H-H[Aib]QGTFTSDVSK[αMeF]LDSK([AEEA-AEEA-γGlu-C18 diacid])RAQDFVRWLASR-OH; N-terminus assumed)
EC50 [1]: 1.63 nM | EC50 [2]: 0.0246 nM | % Relative Potency Ratio [2]: 131.3

CC(C)C[C@H](NC(=O)[C@H](Cc1c[nH]c2ccccc12)NC(=O)[C@H](CCCNC(=N)N)NC(=O)[C@@H](NC(=O)[C@H](Cc1ccccc1)NC(=O)[C@H](CC(=O)O)NC(=O)[C@H](CCC(N)=O)NC(=O)[C@H](C)NC(=O)[C@H](CCCNC(=N)N)NC(=O)[C@H](CCCCNC(=O)COCCOCCNC(=O)COCCOCCNC(=O)CC[C@H](NC(=O)CCCCCCCCCCCCCCCCC(=O)O)C(=O)O)NC(=O)[C@H](CO)NC(=O)[C@H](CC(=O)O)NC(=O)[C@H](CC(C)C)NC(=O)[C@](C)(Cc1ccccc1)NC(=O)[C@H](CCCCN)NC(=O)[C@H](CO)NC(=O)[C@@H](NC(=O)[C@H](CC(=O)O)NC(=O)[C@H](CO)NC(=O)[C@@H](NC(=O)[C@H](Cc1ccccc1)NC(=O)[C@@H](NC(=O)CNC(=O)[C@H](CCC(N)=O)NC(=O)C(C)(C)NC(=O)[C@@H](N)Cc1c[nH]cn1)[C@@H](C)O)[C@@H](C)O)C(C)C)C(C)C)C(=O)N[C@@H](CCC(=O)O)C(=O)N[C@@H](C)C(=O)NC(C)(C)C(=O)NCC(=O)O [Peptide 147] (H-H[Aib]QGTFTSDVSK[αMeF]LDSK([AEEA-AEEA-γGlu-C18 diacid])RAQDFVRWLEA[Aib]G-OH; N-terminus assumed)
EC50 [1]: 0.0435 nM | EC50 [2]: 0.0153 nM | % Relative Potency Ratio [2]: 5.6

CC[C@H](C)[C@H](NC(=O)[C@H](Cc1c[nH]c2ccccc12)NC(=O)[C@H](CCCNC(=N)N)NC(=O)[C@@H](NC(=O)[C@H](Cc1ccccc1)NC(=O)[C@H](CC(=O)O)NC(=O)[C@H](CCC(N)=O)NC(=O)[C@H](C)NC(=O)[C@H](CCCNC(=N)N)NC(=O)[C@H](CCCCNC(=O)COCCOCCNC(=O)COCCOCCNC(=O)CC[C@H](NC(=O)CCCCCCCCCCCCCCCCC(=O)O)C(=O)O)NC(=O)[C@H](CO)NC(=O)[C@H](CC(=O)O)NC(=O)[C@H](CC(C)C)NC(=O)[C@](C)(Cc1ccccc1)NC(=O)[C@H](CCCCN)NC(=O)[C@H](CO)NC(=O)[C@@H](NC(=O)[C@H](CC(=O)O)NC(=O)[C@H](CO)NC(=O)[C@@H](NC(=O)[C@H](Cc1ccccc1)NC(=O)[C@@H](NC(=O)CNC(=O)[C@H](CCC(N)=O)NC(=O)C(C)(C)NC(=O)[C@@H](N)Cc1c[nH]cn1)[C@@H](C)O)[C@@H](C)O)C(C)C)C(C)C)C(=O)N[C@@H](C)C(=O)N[C@@H](CCC(=O)O)C(=O)NC(C)(C)C(=O)NCC(=O)O [Peptide 148] (H-H[Aib]QGTFTSDVSK[αMeF]LDSK([AEEA-AEEA-γGlu-C18 diacid])RAQDFVRWIAE[Aib]G-OH; N-terminus assumed)
EC50 [1]: 0.568 nM | EC50 [2]: 0.0402 nM | % Relative Potency Ratio [2]: 27.9

CC(C)C[C@H](NC(=O)[C@](C)(Cc1ccccc1)NC(=O)[C@H](CCCCN)NC(=O)[C@H](CO)NC(=O)[C@@H](NC(=O)[C@H](CC(=O)O)NC(=O)[C@H](CO)NC(=O)[C@@H](NC(=O)[C@H](Cc1ccccc1)NC(=O)[C@@H](NC(=O)CNC(=O)[C@H](CCC(N)=O)NC(=O)C(C)(C)NC(=O)[C@@H](N)Cc1c[nH]cn1)[C@@H](C)O)[C@@H](C)O)C(C)C)C(=O)N[C@@H](CC(=O)O)C(=O)N[C@@H](CO)C(=O)N[C@@H](CCCCNC(=O)COCCOCCNC(=O)COCCOCCNC(=O)CC[C@H](NC(=O)CCCCCCCCCCCCCCCCC(=O)O)C(=O)O)C(=O)N[C@@H](CCCNC(=N)N)C(=O)N[C@@H](C)C(=O)N[C@@H](CCC(N)=O)C(=O)N[C@@H](CC(=O)O)C(=O)N[C@@H](Cc1ccccc1)C(=O)N[C@H](C(=O)N[C@@H](CCCNC(=N)N)C(=O)N[C@@H](Cc1c[nH]c2ccccc12)C(=O)N[C@H](C(=O)N[C@H](C(=O)N[C@@H](CCC(=O)O)C(=O)NC(C)(C)C(=O)NCC(=O)O)C(C)C)C(C)C)C(C)C [Peptide 149] (H-H[Aib]QGTFTSDVSK[αMeF]LDSK([AEEA-AEEA-γGlu-C18 diacid])RAQDFVRWVVE[Aib]G-OH; N-terminus assumed)
EC50 [1]: 2.65 nM | EC50 [2]: 0.00871 nM | % Relative Potency Ratio [2]: 602.8

CC(C)C[C@H](NC(=O)[C@H](Cc1c[nH]c2ccccc12)NC(=O)[C@H](CCC(N)=O)NC(=O)[C@@H](NC(=O)[C@H](Cc1ccccc1)NC(=O)[C@H](CC(=O)O)NC(=O)[C@H](CCC(N)=O)NC(=O)[C@H](C)NC(=O)[C@H](CCCNC(=N)N)NC(=O)[C@H](CCCCNC(=O)COCCOCCNC(=O)COCCOCCNC(=O)CC[C@H](NC(=O)CCCCCCCCCCCCCCCCC(=O)O)C(=O)O)NC(=O)[C@H](CO)NC(=O)[C@H](CC(=O)O)NC(=O)[C@H](CC(C)C)NC(=O)[C@](C)(Cc1ccccc1)NC(=O)[C@H](CCCCN)NC(=O)[C@H](CO)NC(=O)[C@@H](NC(=O)[C@H](CC(=O)O)NC(=O)[C@H](CO)NC(=O)[C@@H](NC(=O)[C@H](Cc1ccccc1)NC(=O)[C@@H](NC(=O)CNC(=O)[C@H](CCC(N)=O)NC(=O)C(C)(C)NC(=O)[C@@H](N)Cc1c[nH]cn1)[C@@H](C)O)[C@@H](C)O)C(C)C)C(C)C)C(=O)N[C@@H](CC(C)C)C(=O)NC(C)(C)C(=O)N[C@H](C(=O)N[C@@H](CCC(=O)O)C(=O)O)[C@@H](C)O [Peptide 150] (H-H[Aib]QGTFTSDVSK[αMeF]LDSK([AEEA-AEEA-γGlu-C18 diacid])RAQDFVQWLL[Aib]TE-OH; N-terminus assumed)
EC50 [1]: 0.355 nM | EC50 [2]: 0.166 nM | % Relative Potency Ratio [2]: 4.2
